{
  "source": "paper PMC7555330",
  "about": "“In Silico Identification and Biological Evaluation of Antioxidant Food Components Endowed with Human Carbonic Anhydrase IX and XII Inhibition” (Antioxidants, 2020)",
  "key": {"hCA I [1]": {"biological_target": "T1, hCA I (Homo sapiens, UniProt P00915)", "T1 construct": "made in house", "T1 sequence (P00915 whole entry)": "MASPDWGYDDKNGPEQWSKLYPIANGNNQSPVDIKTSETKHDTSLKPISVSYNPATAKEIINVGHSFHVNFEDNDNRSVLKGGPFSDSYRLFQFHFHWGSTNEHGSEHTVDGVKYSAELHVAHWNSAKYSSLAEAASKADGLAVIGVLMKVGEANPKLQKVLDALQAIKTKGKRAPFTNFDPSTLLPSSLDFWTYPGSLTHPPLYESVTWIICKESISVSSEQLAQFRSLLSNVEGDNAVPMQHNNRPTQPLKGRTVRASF", "assay": "stopped-flow CO2 hydrase assay, hCA I", "assay_type": "biochemical", "method": "(§1) The CA-catalyzed CO2 hydration activity of the compounds reported was assayed by means of the Applied Photophysics stopped-flow instrument. Phenol red was used as a pH indicator at a concentration of 0.2 mM, the instrument was set at working maximum absorbance maximum of 557 nm, the solutions were buffered at pH 7.5 with 20 mM HEPES, and 20 mM Na2SO4 was added for keeping constant the ionic strength, to follow the initial rates of the enzyme-catalyzed CO2 hydration reaction for a period of 10–100 s. The CO2 concentrations for the determination of the kinetic parameters and inhibition constants ranged from 1.7 to 17 mM.\n(§2) The uncatalyzed rates were determined in the same experimental manner and subtracted from the total observed values. Stock solutions of the potential inhibitor (0.1 mM) were prepared by using distilled deionized water, and the dilutions with the assay buffer were prepared up to 0.01 nM. The solutions containing the inhibitor and the enzyme were preincubated for 30 min at r.t. prior to performing the assay, in order to form the E−I adduct. The inhibition constants (KIS) were obtained by the nonlinear least squares methods using PRISM 3 and the Cheng−Prusoff equation, as reported earlier, and represent the mean from three different experimental determinations. All CA isoforms herein reported were recombinant and obtained in-house."}, "hCA II [2]": {"biological_target": "T2, hCA II (Homo sapiens, UniProt P00918)", "T2 construct": "made in house", "assay": "stopped-flow CO2 hydrase assay, hCA II", "assay_type": "biochemical", "method": "as §1, §2"}, "hCA IX [3]": {"biological_target": "T3, hCA IX (Homo sapiens, UniProt Q16790)", "T3 construct": "made in house", "assay": "stopped-flow CO2 hydrase assay, hCA IX", "assay_type": "biochemical", "conditions": "mean of three assays, errors ±5–10%", "method": "as §1, §2"}, "hCA XII [4]": {"biological_target": "T4, hCA XII (Homo sapiens, UniProt O43570)", "T4 construct": "made in house", "T4 sequence (O43570 25-354)": "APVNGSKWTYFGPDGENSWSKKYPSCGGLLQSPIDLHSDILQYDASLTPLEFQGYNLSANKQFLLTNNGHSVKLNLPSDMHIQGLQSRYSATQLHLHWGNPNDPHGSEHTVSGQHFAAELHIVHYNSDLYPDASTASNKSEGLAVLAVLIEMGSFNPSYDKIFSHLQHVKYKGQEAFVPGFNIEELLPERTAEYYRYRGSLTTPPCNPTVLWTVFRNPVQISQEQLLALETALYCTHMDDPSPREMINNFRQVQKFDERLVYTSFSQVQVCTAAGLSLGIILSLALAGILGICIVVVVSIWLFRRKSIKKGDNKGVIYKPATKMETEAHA", "assay": "stopped-flow CO2 hydrase assay, hCA XII", "assay_type": "biochemical", "conditions": "for selectivity index (SI; KI hCA IX/KI hCA XII): hCA XII over hCA IX", "method": "as §1, §2"}, "MTT cell viability assay": {"assay": "MTT cell viability assay", "assay_type": "cell-based", "conditions": "human, Caco-2 cells; Caco-2, 10 µM, 72 h after treatment, percentage of control", "method": "The human colorectal cancer cells Caco-2 were maintained in Dulbecco’s Modified Eagle Medium (DMEM, Sigma-Aldrich, St. Louis, MO, USA) integrated with 10% of FBS (Fetal Bovine Serum, Sigma-Aldrich, St. Louis, MO, USA) and 1% P/S (Penicillin, Streptomycin, Sigma-Aldrich, St. Louis, MO, USA). Cells’ culture conditions were 5% CO2 incubator at 37 °C. Cell viability was assessed through an MTT assay: 1 × 10^4 cells/well were plated in a 96-well microplate and, two hours later, treated with 6, 12, and 14 (the latter dissolved in DMSO) at 10 µM concentration. After 24, 48, and 72 h, 20 µL of 3-(4,5-dimethylthiazol-2-yl)-2,5 diphenyl tetrazolium (MTT detection reagent, Sigma-Aldrich, St. Louis, MO, USA) was added on the plate at the final concentration of […], and incubated for two more hours. Culture agent was removed and 200 µL of isopropanol (0.04 M HCl) were added to solubilizeformazan crystals. Absorbance was measured at 560 nm by the Victor 3 reader."}, "hCA I [5]": {"biological_target": "T1, hCA I", "design": "method as in PMID 26498393", "conditions": "stopped-flow CO2 hydrase assay; cited from earlier work"}, "hCA II [6]": {"biological_target": "T2, hCA II", "design": "method as in PMID 26498393", "conditions": "stopped-flow CO2 hydrase assay; cited from earlier work"}, "hCA IX [7]": {"biological_target": "T3, hCA IX", "conditions": "literature statement; cited from earlier work"}, "hCA XII [8]": {"biological_target": "T4, hCA XII", "conditions": "literature statement; cited from earlier work"}},
  "note": "Where two headings read alike, the source gives them in different places.",
  "data": [
    {"smiles": "COc1cc([C@@H]2Oc3c(OC)cc(/C=C/CO)cc3[C@H]2CO)ccc1O", "note": "[compound 6, (-)-dehydrodiconiferyl alcohol]", "values": [
      {"measurement": "Ki", "setting": "hCA I [1]; stopped-flow CO2 hydrase assay, mean of three assays, errors ±5–10%, read-out: KI hCA I", "result": "> 100000", "unit": "nM"},
      {"measurement": "Ki", "setting": "hCA II [2]; stopped-flow CO2 hydrase assay, mean of three assays, errors ±5–10%, read-out: KI hCA II", "result": "> 100000", "unit": "nM"},
      {"measurement": "Ki", "setting": "hCA IX [3]", "result": 2590, "unit": "nM"},
      {"measurement": "selectivity index (SI; KI hCA IX/KI hCA XII)", "setting": "hCA XII [4]", "result": 27.0, "unit": "fold"},
      {"measurement": "Ki", "setting": "hCA XII [4]; stopped-flow CO2 hydrase assay, mean of three assays, errors ±5–10%, read-out: KI hCA XII", "result": 96, "unit": "nM"},
      {"measurement": "viability at 72 h, 10 µM", "setting": "MTT cell viability assay", "result": "~70", "unit": "%"}
    ]},
    {"smiles": "COc1cc(/C=C/CO)cc(OC)c1O[C@@H]1O[C@H](CO)[C@@H](O)[C@H](O)[C@H]1O", "note": "[compound 14, syringin]", "values": [
      {"measurement": "Ki", "setting": "hCA I [1]", "result": "> 100000", "unit": "nM"},
      {"measurement": "Ki", "setting": "hCA II [2]", "result": "> 100000", "unit": "nM"},
      {"measurement": "Ki", "setting": "hCA IX [3]", "result": 320, "unit": "nM"},
      {"measurement": "Ki", "setting": "hCA XII [4]", "result": 92, "unit": "nM"},
      {"measurement": "selectivity index (SI; KI hCA IX/KI hCA XII)", "setting": "hCA XII [4]", "result": 3.5, "unit": "fold"},
      {"measurement": "viability at 72 h, 10 µM", "setting": "MTT cell viability assay", "result": "~50", "unit": "%"}
    ]},
    {"smiles": "O=C(/C=C/c1ccc(O)c2c1[C@H](C(=O)O)[C@@H](c1ccc(O)c(O)c1)O2)O[C@H](Cc1ccc(O)c(O)c1)C(=O)O", "note": "[compound 12, lithospermic acid]", "values": [
      {"measurement": "viability at 72 h, 10 µM", "setting": "MTT cell viability assay", "result": "~50", "unit": "%"},
      {"measurement": "Ki", "setting": "hCA I [5]", "result": "> 100000", "unit": "nM"},
      {"measurement": "Ki", "setting": "hCA II [6]", "result": "> 100000", "unit": "nM"}
    ]},
    {"smiles": "COc1ccccc1O", "note": "[Guaiacol]", "values": [
      {"measurement": "Ki hCA IX", "setting": "hCA IX [7]", "result": "low micromolar range"},
      {"measurement": "Ki hCA XII", "setting": "hCA XII [8]", "result": "low micromolar range"}
    ]}
  ]
}
